# Experimental data as given in patent US20050245455A1, “Gonadotropin releasing hormone antagonists in gel-forming concentrations” (priority 2001, published 2005).
# Where a SMILES comes first, the peptide text is derived from it. [ ]: non-standard residue; d: D form. The star is where a group is joined. dPhe(4-NHCONH2) = NC(=O)Nc1ccc(C[C@@H](N)C(=O)O)cc1; Dihydroorotyl(S) = O=C1C[C@@H](C(=O)*)NC(=O)N1; dPhe(4-Cl) = N[C@H](Cc1ccc(Cl)cc1)C(=O)O; Phe(4-NH2) = Nc1ccc(C[C@H](N)C(=O)O)cc1; d2Nal = N[C@H](Cc1ccc2ccccc2c1)C(=O)O; Lys(iPr) = CC(C)NCCCC[C@H](N)C(=O)O; d3Pal = N[C@H](Cc1cccnc1)C(=O)O
# Settings: dog, in vivo, sc
smiles,measurement,value
"CC(=O)N[C@H](Cc1ccc2ccccc2c1)C(=O)N[C@H](Cc1ccc(Cl)cc1)C(=O)N[C@H](Cc1cccnc1)C(=O)N[C@@H](CO)C(=O)N[C@@H](Cc1ccc(NC(=O)[C@@H]2CC(=O)NC(=O)N2)cc1)C(=O)N[C@H](Cc1ccc(NC(N)=O)cc1)C(=O)N[C@@H](CC(C)C)C(=O)N[C@@H](CCCCNC(C)C)C(=O)N1CCC[C@H]1C(=O)N[C@H](C)C(N)=O [Peptide 1, Ac-DNal-DCpa-DPal-Ser-Aph(L-Hor)-DAph(CONH2)-Leu-Lys(iPr)-Pro-DAla-NH2] (Ac-[d2Nal][dPhe(4-Cl)][d3Pal]S[Phe(4-NH2)](Dihydroorotyl(S))[dPhe(4-NHCONH2)]L[Lys(iPr)]P[dA]-NH2)","Fraction of the total dose absorbed, subcutaneous compared to intramuscular administration",almost twice as high
